The values below come from paper PMC4786809, “Determination of cyanidin 3-glucoside in rat brain, liver and kidneys by UPLC/MS-MS and its application to a short-term pharmacokinetic study” (Scientific Reports, 2016).

The structures appear in SMILES notation. Several values for one entry are separate records, joined by “and”; a condition that tells them apart may be missing. Equal entries are not always repeated.

This series can be described thus: Brain concentrations and tissue pharmacokinetics after intravenous C3G. It counts as in vivo, Wistar rats. From the text:
Twenty-two male Wistar rats (Rattus Norvegicus, Harlan Italy S.r.l.), of same age (15 weeks), 293–390 g of body weight, were used. The rats were randomly divided into 5 groups, according to the time that elapsed after intravenous administration of the test compound, and one control group. Each time point was represented by four biological replicates. All animals were allowed to acclimate to the animal facility of the University of Trieste for at least 2 week before studies were initiated. The experimental design was vetted and approved by the bioethical committee of the University of Trieste (internal code 140PAS14), according to the provisions of the European Community Council Directive 2010/63/EU[39]. The methods were carried out in accordance with the approved guidelines. The animals (n = 22) were maintained in cages in a room at 23 ± 2 °C, 50–60% humidity with a 12-hour light-dark cycle. The night before the experiment, food was withdrawn from the cages but water was given ad libitum. On the day of the experiment, the rats were anesthetized with intra-peritoneal administration of tiletamine/zolazepam (1:1, 25 mg/kg body weight) and xylazine (10 mg/kg body weight). During anaesthesia (10 min in all cases), the heart and ventilation rate were monitored. The rats were placed on their backs, with the ventral side up and with the legs spread separately on a thermo-isolated support. The penis was extruded by sliding the prepuce downwards. The dorsal penis vein was then seen along both sides of the penis and exactly 10 min after anaesthesia 0.2 mL PBS without (control group) or with (treated group) 668 nmol cyanidin 3-glucoside (C3G) in PBS was injected using a 24-G hypodermic needle. Then the injection site was pressed with a swab for a few seconds, and the glans was encouraged to retract to prevent further bleeding. One min before sacrificing the rats, sodium heparin (0.1 ml, 500 IU) was injected again into the dorsal penis vein, exposed in the same way. […] Blood draining and excision of the organs were carried out according to the literature. In detail, blood was collected from the neck of rats hold upside down, immediately after their decapitation, which happened at the time points sharp. Exsanguination took 5 seconds; laparotomy and excision of the liver and the kidneys took 5 more seconds. The post-decapitation procedures were standardised. Urine was collected through the urinary bladder with a syringe before decapitation. Kidneys, liver and brain were washed with mQ water, immediately frozen in liquid nitrogen and stored at −80 °C.
Immediately after sampling, 5 mL of blood were transferred into ice-cold (−20 °C), deoxygenated aqueous 95% methanol in a ratio 1:9 (v/v). The urine was weighted and transferred into ice-cold, deoxygenated aqueous 95% methanol at a ratio of 1:9 (w/v). Frozen kidneys, liver and brain were grounded under cryogenic conditions (−196 °C) to 5 μm particles in a CryoMill (Retsch, Germany), using a single 25 mm i. d. steel ball (30 seconds, 25/sec frequency). The pulverized tissue was rapidly transferred (without thawing) into ice-cold, deoxygenated aqueous 95% methanol at a ratio of 1:9 (w/v). Cinnamic acid-d5, as internal standard, was dissolved in the aqueous methanol at concentration of 0.1 mg/L for the monitoring of the extraction protocol in biofluids and tissues.
All samples were extracted with an orbital shaker for 10 min at room temperature. The methanol extracts were then centrifuged for 5 min at 3600 rpm at 4 °C, decanted under a stream of nitrogen in 50 mL dark glass vessels and stored at −80 °C. Clean-up of extracted samples in methanol was performed by solid phase extraction (SPE), as previously described. Briefly, 5 mL of extracted samples were evaporated on a rotary evaporator and reconstituted in 10 mL of acidified water. Anthocyanins were extracted by solid-phase adsorption onto a hydrophobic matrix (Sep-Pak C18, 0.35 g, Waters, Milford, MA). […]

Take `OC[C@H]1O[C@@H](Oc2cc3c(O)cc(O)cc3[o+]c2-c2ccc(O)c(O)c2)[C@H](O)[C@@H](O)[C@@H]1O` [C3G, Cyanidin-3-O-β-glucoside]: the “Mean concentration in brain” value runs as follows: (0.25 min after i.v. 668 nmol C3G, mean ± SEM n=4, corrected for residual blood) 40.46 ± 9.67 pmol/g; (2 min after i.v. 668 nmol C3G) 7.48 ± 0.79 pmol/g; (5 min after i.v. 668 nmol C3G) 7.05 ± 0.55 pmol/g; (15 min after i.v. 668 nmol C3G) 2.18 ± 0.58 pmol/g; (20 min after i.v. 668 nmol C3G) 2.21 ± 0.44 pmol/g. Moreover, the “MTTB (Mean Transit Time in the brain)” value (brain) was 0.43 min. The AUC0-t (brain, i.v. 668 nmol C3G) was 119.9 pmol·min/g and 119.89 pmol·min/g. Also, the half-life (male, Wistar, rat, brain, iv, 668 nmol) is 8.8 min. For the setting “male, Wistar, rat, brain, iv, 668 nmol, 15 sec after i.v., read-out: Corresponding brain concentration assuming free diffusion in a water compartment”, the concentration at 15 sec was roughly 50 nM.

One may read the half-life as the time needed for the level to fall by half in the phase considered. Low readings indicate fast loss, high ones slow loss.
